Assays:
Assay type in all cases: cell-based
[1] = target: T1, E3 ubiquitin-ligase Hakai (Mus musculus, UniProt Q9JIY2); assay: Hakai-dependent ubiquitination of the E-cadherin complex (immunoprecipitation, 293T cells); conditions: 293T cells transfected with Flag-Hakai, myc-E-cadherin, v-Src, HA-ubiquitin; IP with anti-E-cadherin
T1 construct: expressed in transfected cells; host or cells: HEK293T (293) cells, co-transfected with v-Src and HA-ubiquitin, and in A3 also with myc-E-cadherin
T1 sequence (Q9JIY2 1-491): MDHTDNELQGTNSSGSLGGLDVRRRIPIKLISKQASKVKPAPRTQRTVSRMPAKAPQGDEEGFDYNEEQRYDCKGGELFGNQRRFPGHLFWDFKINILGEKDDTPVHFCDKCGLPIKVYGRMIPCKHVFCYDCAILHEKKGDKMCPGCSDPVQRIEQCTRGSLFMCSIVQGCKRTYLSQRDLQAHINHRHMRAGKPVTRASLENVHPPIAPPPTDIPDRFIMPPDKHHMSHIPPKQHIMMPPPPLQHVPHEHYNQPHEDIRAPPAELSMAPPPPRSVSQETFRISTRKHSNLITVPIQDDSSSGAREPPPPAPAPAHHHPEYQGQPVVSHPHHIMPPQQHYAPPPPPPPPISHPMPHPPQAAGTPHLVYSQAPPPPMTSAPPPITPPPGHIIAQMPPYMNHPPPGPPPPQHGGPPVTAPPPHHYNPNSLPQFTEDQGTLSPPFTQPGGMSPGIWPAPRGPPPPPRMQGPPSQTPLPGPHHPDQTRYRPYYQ
Description: For immunoprecipitation experiments, 293 cells were transfected with 3 μg Src, 4 μg Flag-Hakai, and 2 μg HA-ubiquitin and 3 μg E-cadherin with Lipofectamin 2000 (Invitrogen, UK). 24 h after transfection, cells were lysed for 20 min in 1 ml of 1% Triton X-100 lysis buffer (20 mM Tris-HCl pH 7.5, 150 mM NaCl and 1% Triton X-100) containing 10 μg/ml leupeptin, 10 μg/ml aprotinin and 1 mM phenylmethanesulphonyl fluoride (PMSF), supplemented with 10 mM N-ethylmaleimide and 2.5 mM sodium orthovanadate. After centrifugation at 18.000 g for 10 min, the supernatants were immunoprecipitated for 2 h with 2 μg of anti-E-cadherin antibody bound to 60 μl of protein G PLUS-Agarose beads, followed by SDS-polyacrylamide gel electrophoresis (PAGE) and western blotting with the indicated antibodies as previously reported.

[2] = target: T1, E3 ubiquitin-ligase Hakai; assay: Hakai-dependent ubiquitination assay in 293T cells transfected with Flag-Hakai, v-Src and HA-ubiquitin; conditions: 293T cells transfected with Src, treated 36 h
Description: For ubiquitination assays, 750.000 HEK293T cells were seeded in 6-well cell culture plates and after 24 h were transfected with 0.25 μg Src, 0.75 μg Flag-Hakai, and 0.5 μg HA-ubiquitin with Lipofectamin 2000 (Invitrogen, UK). Six hours after transfection cells were treated with indicated concentrations of Hakin-1, Hakin-5 or the rest of the analogues tested for 36 h. Whole cell extracts were obtained in lysis buffer (20 mM Tris-HCl pH 7.5, 150 mM NaCl and 1% Triton X-100) containing 10 μg/ml leupeptin, 10 μg/ml aprotinin and 1 mM phenylmethanesulphonyl fluoride (PMSF), supplemented with 10 mM N-ethylmaleimide. Cells were harvested and subjected to western blotting using anti-HA antibody to detect ubiquitination.

[3] = tested on: MDCK non-transformed cells; assay: Soft agar-colony formation assay, MDCK; conditions: 21 days
Description: Soft agar-colony formation assay was performed on 12-well plates in triplicates at a density of 5×10^3 MDCK and MDCK-Hakai cells/well, or 12×10^3 HT29 cells/well. Cells were seeded in medium with 0.5% low-melting agarose over a layer with 0.75% low-melting agarose (Lonza Rockland, Me., USA). Cells were treated with the indicated inhibitors and DMSO was used as vehicle. Treatment was refreshed every 3 days and, after 21 days for MDCK and MDCK-Hakai cells or 28 days for HT29 cells, number of colonies were quantified. Quantification of five randomly-selected fields of each condition was photographed with a Nikon Eclipse-TI microscope (objective 4×). Experiments were conducted with three triplicates and were repeated three times. Data are represented as mean±SD.

O=C(O)c1ccc(-n2nnnc2SCC(=O)c2ccc([N+](=O)[O-])cc2)cc1 [Hakin-1, 4-(5-{[2-(4-nitrophenyl)-2-oxoethyl]thiol}-1H-tetrazol-1-yl)benzoic acid]
Hakai-dependent ubiquitination of E-cadherin complex [1]: reduction of Hakai-dependent ubiquitination of E-cadherin complex
Hakai protein levels [2]: no effect was seen
ubiquitination mediated by Hakai (western blotting, anti-HA) ([2]; DMSO as control): strongly reduces the ubiquitination mediated by Hakai in a doses dependent-manner
colony formation (soft agar) [3]: no colony formation was detected

Reference: patent US20220016080A1, “COMPOUNDS THAT SELECTIVELY AND EFFECTIVELY INHIBIT HAKAI-MEDIATED UBIQUITINATION, AS ANTI-CANCER DRUGS” (FUNDACIÓN PROFESOR NOVOA SANTOS, priority 2018, published 2022)
